The text below walks through data of BindingDB's records for doi:10.7270/Q2QJ7FRJ (Nmmlsc, 2009).

Chain of Cell division control protein 42 homolog (P60953 whole entry): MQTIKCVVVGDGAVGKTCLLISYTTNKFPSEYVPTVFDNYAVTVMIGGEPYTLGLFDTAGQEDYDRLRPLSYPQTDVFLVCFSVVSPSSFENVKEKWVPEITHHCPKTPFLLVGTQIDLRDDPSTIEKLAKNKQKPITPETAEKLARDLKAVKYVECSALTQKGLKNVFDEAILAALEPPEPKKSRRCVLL

The first experiment addresses Cell division control protein 42 homolog (Homo sapiens, UniProt P60953). The experiment is described as follows: wildtype Cdc42 GTP-binding inhibitors, SAR follow-up, biochemical, pyrazoline analogs, multiplex bead flow cytometry, Ki (AID 2019).
Settings: not given
In general terms: In flow cytometry, cells or beads pass a laser one at a time.
With `COc1ccc(C2CC(c3ccccc3Br)=NN2c2ccc(S(N)(=O)=O)cc2)cc1` (centres undefined) [UNM-0000306112], the EC50 (as a rule, the concentration at which the effect is half-maximal) stood at 3.36 µM.
In the case of `COc1ccc(C2CC(c3cccnc3)=NN2c2ccc(S(N)(=O)=O)cc2)cc1` (centres undefined), a half-maximal effect (EC50) was put at 9.51 µM.
Same read-out and setting: the result for `COc1ccc(C2CC(c3ccc(F)cc3)=NN2c2ccc(S(N)(=O)=O)cc2)cc1` (centres undefined) [4-[5-(4-fluorophenyl)-3-(4-methoxyphenyl)-3,4-dihydropyrazol-2-yl]benzenesulfonamide] reads 4.26 µM.

The experiment is the same for the next values; noted with them: inactive by the depositor's call.
For `COc1ccc(-c2cc(-c3ccccc3)nn2-c2ccc(S(N)(=O)=O)cc2)cc1` [4-[5-(4-methoxyphenyl)-3-phenylpyrazol-1-yl]benzenesulfonamide], a half-maximal response (EC50) required 5.05 µM.
Turning to `COc1ccc(C2CC(c3ccc(C(F)(F)F)cc3)=NN2c2ccc(S(N)(=O)=O)cc2)cc1` (centres undefined) [4-[3-(4-methoxyphenyl)-5-[4-(trifluoromethyl)phenyl]-3,4-dihydropyrazol-2-yl]benzenesulfonamide], the EC50 was determined as 30 µM.
Same read-out and setting: the result for `COc1ccccc1C1CC(c2ccccc2)=NN1c1ccccc1` (centres undefined) reads 30 µM; that for `COc1ccc(C2=NN(c3ccccc3)C(c3ccccc3C(F)(F)F)C2)cc1` (centres undefined), 34.4 µM; that for `O=[N+]([O-])c1cccc(C2C[C-](c3ccccc3)N=[N+]2c2ccccc2)c1` (centres undefined) [UNM-0000305857], 30 µM.
Same read-out and setting: next, `CN(C)c1ccc(C2CC(c3ccc(F)cc3)=NN2c2ccccc2)cc1` (centres undefined) [UNM-0000305866]: 30 µM; `COc1ccc(C2CC(c3ccc(F)cc3)=NN2c2cc(Cl)ccc2Cl)cc1` (centres undefined) [2-(2,5-dichlorophenyl)-5-(4-fluorophenyl)-3-(4-methoxyphenyl)-3,4-dihydropyrazole]: 30 µM.
The same measure, in the same setting: next, `Clc1cccc(N2N=C(c3ccccc3)CC2c2ccccc2)c1` (centres undefined): 30 µM.
In the case of `Cc1ccc(-c2cc(C(F)(F)F)nn2-c2ccc(S(N)(=O)=O)cc2)cc1` [Celecoxib], a half-maximal effect (EC50) was put at 30 µM.
The same measure, in the same setting: the result for `Cc1onc(-c2ccccc2)c1-c1ccc(S(N)(=O)=O)cc1` reads 30 µM; that for `O=S(=O)(c1ccc(N2N=C(c3ccc(Br)cc3)CC2c2ccccc2)cc1)C(F)F` (centres undefined) [5-(4-bromophenyl)-2-[4-(difluoromethylsulfonyl)phenyl]-3-phenyl-3,4-dihydropyrazole], 30 µM.
